Measured values: patent US20220389007A1, “INHIBITORS OF HUMAN IMMUNODEFICIENCY VIRUS REPLICATION” (VIIV HEALTHCARE UK (No. 5) LIMITED, priority 2019, published 2022)
Read-outs that look alike come from different tables or passages of the source.

Assays:
Type in all cases: cell-based
recombinant NL4-3 virus = assay: HIV cell culture assay (antiviral activity, luciferase readout)
Outline: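 MT-2 cells infected for 4-5 days with NL4-3 reference virus carrying Renilla luciferase in place of part of nef, in presence of serial compound dilutions. Luciferase read with live-cell substrate; EC50 from median effect equation fit.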

uninfected MT2 cells = assay: Compound cytotoxicity, XTT-based colorimetric assay; settings: day 4, XTT assay
Outline: (§1)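 Run under the antiviral-assay protocol but without virus. Viability was read on day 4 and CC50 values were derived from the readout.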

[1] = as above; settings: human; uninfected MT2 cells, day 4, XTT assay
Outline: as §1

[2] = MT-2 cells infected for 4-5 days with recombinant NL4-3 virus carrying Renilla luciferase, read-out: EC50
[3] = Human immunodeficiency virus 1, NL43, MT2, MT-2 cells infected for 4-5 days with recombinant NL4-3 virus carrying Renilla luciferase

Structure (SMILES)	EC50 (recombinant NL4-3 virus; [2]) [nM]	CC50 (uninfected MT2 cells) [nM]	EC50 (recombinant NL4-3 virus; [3]) [nM]	CC50 at 4 day [1] [nM]
Cn1nc(NS(C)(=O)=O)c2c(Cl)ccc(-n3c([C@H](Cc4cc(F)cc(F)c4)NC(=O)Cn4nc(C(F)F)c5c4C(F)(F)[C@@H]4C[C@H]54)nc4nc(-c5cc(C(F)(F)F)nn5CC(C)(F)F)ccc4c3=O)c21 [Example 95, N-((S)-1-((3P)-3-(4-chloro-1-methyl-3-(methylsulfonamido)-1H-indazol-7-yl)-7-(1-(2,2-difluoropropyl)-3-(trifluoromethyl)-1H-pyrazol-5-yl)-4-oxo-3,4-dihydropyrido[2,3-d]pyrimidin-2-yl)-2-(3,5-difluorophenyl)ethyl)-2-((3bS,4aR)-3-(difluoromethyl)-5,5-difluoro-3b,4,4a,5-tetrahydro-1H-cyclopropa[3,4]cyclopenta[1,2-c]pyrazol-1-yl)acetamide]	0.25	> 100	–	–
Cn1nc(NS(C)(=O)=O)c2c(Cl)ccc(-n3c([C@H](Cc4cc(F)cc(F)c4)NC(=O)Cn4nc(C(F)F)c5c4C(F)(F)[C@@H]4C[C@H]54)nc4nc(-c5cnc(C(C)(C)O)s5)ccc4c3=O)c21 [Example 92, N-((S)-1-((3P)-3-(4-chloro-1-methyl-3-(methylsulfonamido)-1H-indazol-7-yl)-7-(2-(2-hydroxypropan-2-yl)thiazol-5-yl)-4-oxo-3,4-dihydropyrido[2,3-d]pyrimidin-2-yl)-2-(3,5-difluorophenyl)ethyl)-2-((3bS,4aR)-3-(difluoromethyl)-5,5-difluoro-3b,4,4a,5-tetrahydro-1H-cyclopropa[3,4]cyclopenta[1,2-c]pyrazol-1-yl)acetamide]	0.065	> 100	–	–
Cn1nc(NS(C)(=O)=O)c2c(Cl)ccc(-n3c([C@H](Cc4cc(F)cc(F)c4)NC(=O)Cn4nc(C(F)F)c5c4C(F)(F)[C@@H]4C[C@H]54)nc4nc(-c5csc(S(C)(=O)=O)n5)ccc4c3=O)c21 [Example 93, N-((S)-1-((3P)-3-(4-chloro-1-methyl-3-(methylsulfonamido)-1H-indazol-7-yl)-7-(2-(methylsulfonyl)thiazol-4-yl)-4-oxo-3,4-dihydropyrido[2,3-d]pyrimidin-2-yl)-2-(3,5-difluorophenyl)ethyl)-2-((3bS,4aR)-3-(difluoromethyl)-5,5-difluoro-3b,4,4a,5-tetrahydro-1H-cyclopropa[3,4]cyclopenta[1,2-c]pyrazol-1-yl)acetamide]	0.056	> 100	–	–
Cn1nc(NS(C)(=O)=O)c2c(Cl)ccc(-n3c([C@H](Cc4cc(F)cc(F)c4)NC(=O)Cn4nc(C(F)F)c5c4C(F)(F)[C@@H]4C[C@H]54)nc4nc(-c5cncnc5)ccc4c3=O)c21 (atropisomer, axis not shown; (P)) [Example 55, N-((S)-1-((3P)-3-(4-chloro-1-methyl-3-(methylsulfonamido)-1H-indazol-7-yl)-4-oxo-7-(pyrimidin-5-yl)-3,4-dihydropyrido[2,3-d]pyrimidin-2-yl)-2-(3,5-difluorophenyl)ethyl)-2-((3bS,4aR)-3-(difluoromethyl)-5,5-difluoro-3b,4,4a,5-tetrahydro-1H-cyclopropa[3,4]cyclopenta[1,2-c]pyrazol-1-yl)acetamide]	–	–	0.09	> 100
Cc1cc(-c2ccc3c(=O)n(-c4ccc(Cl)c5c(NS(C)(=O)=O)nn(C)c45)c([C@H](Cc4cc(F)cc(F)c4)NC(=O)Cn4nc(C(F)F)c5c4C(F)(F)[C@@H]4C[C@H]54)nc3n2)ccn1 (atropisomer, axis not shown; (P)) [Example 48, N-((S)-1-((3P)-3-(4-chloro-1-methyl-3-(methylsulfonamido)-1H-indazol-7-yl)-7-(2-methylpyridin-4-yl)-4-oxo-3,4-dihydropyrido[2,3-d]pyrimidin-2-yl)-2-(3,5-difluorophenyl)ethyl)-2-((3bS,4aR)-3-(difluoromethyl)-5,5-difluoro-3b,4,4a,5-tetrahydro-1H-cyclopropa[3,4]cyclopenta[1,2-c]pyrazol-1-yl)acetamide]	–	–	0.053	> 100
Cn1nc(NS(C)(=O)=O)c2c(Cl)ccc(-n3c([C@H](Cc4cc(F)cc(F)c4)NC(=O)Cn4nc(C(F)F)c5c4C(F)(F)[C@@H]4C[C@H]54)nc4nc(-c5cncc(C(F)(F)F)n5)ccc4c3=O)c21 (atropisomer, axis not shown; (P)) [Example 13, N-((S)-1-((3P)-3-(4-chloro-1-methyl-3-(methylsulfonamido)-1H-indazol-7-yl)-4-oxo-7-(6-(trifluoromethyl)pyrazin-2-yl)-3,4-dihydropyrido[2,3-d]pyrimidin-2-yl)-2-(3,5-difluorophenyl)ethyl)-2-((3bS,4aR)-3-(difluoromethyl)-5,5-difluoro-3b,4,4a,5-tetrahydro-1H-cyclopropa[3,4]cyclopenta[1,2-c]pyrazol-1-yl)acetamide]	–	–	0.04	> 100
Cn1nc(NS(C)(=O)=O)c2c(Cl)ccc(-n3c([C@H](Cc4cc(F)cc(F)c4)NC(=O)Cn4nc(C(F)F)c5c4C(F)(F)[C@@H]4C[C@H]54)nc4nc(-c5csc(C(F)(F)F)n5)ccc4c3=O)c21 (atropisomer, axis not shown; (P)) [Example 4, N-((S)-1-((3P)-3-(4-chloro-1-methyl-3-(methylsulfonamido)-1H-indazol-7-yl)-4-oxo-7-(2-(trifluoromethyl)thiazol-4-yl)-3,4-dihydropyrido[2,3-d]pyrimidin-2-yl)-2-(3,5-difluorophenyl)ethyl)-2-((3bS,4aR)-3-(difluoromethyl)-5,5-difluoro-3b,4,4a,5-tetrahydro-1H-cyclopropa[3,4]cyclopenta[1,2-c]pyrazol-1-yl)acetamide]	–	–	0.055	> 100
Cc1cc(-c2ccc3c(=O)n(-c4ccc(Cl)c5c(NS(C)(=O)=O)nn(C)c45)c([C@H](Cc4cc(F)cc(F)c4)NC(=O)Cn4nc(C(F)F)c5c4C(F)(F)[C@@H]4C[C@H]54)nc3n2)n(C)n1 (atropisomer, axis not shown; (P)) [Example 70, N-((S)-1-((3P)-3-(4-chloro-1-methyl-3-(methylsulfonamido)-1H-indazol-7-yl)-7-(1,3-dimethyl-1H-pyrazol-5-yl)-4-oxo-3,4-dihydropyrido[2,3-d]pyrimidin-2-yl)-2-(3,5-difluorophenyl)ethyl)-2-((3bS,4aR)-3-(difluoromethyl)-5,5-difluoro-3b,4,4a,5-tetrahydro-1H-cyclopropa[3,4]cyclopenta[1,2-c]pyrazol-1-yl)acetamide]	–	–	0.041	> 100
